In the NIST ThermoML archive (doi:10.1016/j.fluid.2014.09.014):
Numbers after ± are expanded uncertainties.

Assay: refractive index (other wavelength) (dimensionless); xn = mol fraction of the nth substance listed
Conditions: 298.15 K, 101 kPa, Liquid, Standard Abbe refractometry

CC(C)OC(C)C [diisopropyl ether] + CO
refractive index
Conditions | Wavelength=587.6 nm | Wavelength=589.3 nm | Wavelength=632.8 nm | Wavelength=644 nm
x2 = 0 | – | 1.3653 ± 0.00043 | 1.36402 ± 0.00043 | 1.36373 ± 0.00043
x2 = 0.0423 | – | 1.36528 ± 0.00042 | 1.364 ± 0.00042 | 1.3637 ± 0.00042
x2 = 0.0424 | – | 1.36525 ± 0.00043 | 1.36397 ± 0.00043 | 1.36367 ± 0.00043
x2 = 0.082 | – | 1.36523 ± 0.00042 | 1.36395 ± 0.00042 | 1.36365 ± 0.00042
x2 = 0.0822 | – | 1.36524 ± 0.00042 | 1.36396 ± 0.00042 | 1.36367 ± 0.00042
x2 = 0.1171 | – | 1.36508 ± 0.00041 | 1.36381 ± 0.00041 | 1.36352 ± 0.00041
x2 = 0.1271 | – | 1.3651 ± 0.00041 | 1.36381 ± 0.00041 | 1.36352 ± 0.00041
x2 = 0.1827 | – | 1.36473 ± 0.0004 | 1.36346 ± 0.0004 | 1.36317 ± 0.0004
x2 = 0.2162 | – | 1.36528 ± 0.0004 | 1.364 ± 0.0004 | 1.3637 ± 0.0004
x2 = 0.251 | – | 1.36465 ± 0.00039 | 1.36338 ± 0.00039 | 1.36308 ± 0.00039
x2 = 0.3298 | – | 1.36386 ± 0.00038 | 1.3626 ± 0.00038 | 1.36231 ± 0.00038
x2 = 0.3577 | – | 1.36246 ± 0.00037 | 1.36121 ± 0.00037 | 1.36091 ± 0.00037
x2 = 0.4497 | – | 1.36158 ± 0.00037 | 1.36034 ± 0.00037 | 1.36004 ± 0.00037
x2 = 0.4525 | 1.36217 ± 0.00037 | 1.36212 ± 0.00037 | 1.36087 ± 0.00037 | 1.36057 ± 0.00037
x2 = 0.522 | 1.35991 ± 0.00035 | 1.35986 ± 0.00035 | 1.35863 ± 0.00035 | 1.35833 ± 0.00037
x2 = 0.5543 | 1.35952 ± 0.00035 | 1.35947 ± 0.00035 | 1.35812 ± 0.00035 | 1.35777 ± 0.00035
x2 = 0.609 | 1.35663 ± 0.00034 | 1.35658 ± 0.00034 | 1.35536 ± 0.00034 | 1.35507 ± 0.00034
x2 = 0.6529 | 1.35515 ± 0.00034 | 1.3551 ± 0.00034 | 1.35389 ± 0.00034 | 1.3536 ± 0.00034
x2 = 0.7504 | 1.3513 ± 0.00033 | 1.35125 ± 0.00033 | 1.35005 ± 0.00033 | 1.34978 ± 0.00033
x2 = 0.804 | 1.3471 ± 0.00033 | 1.34706 ± 0.00033 | 1.3459 ± 0.00033 | 1.34562 ± 0.00033
x2 = 0.807 | 1.34699 ± 0.00033 | 1.34694 ± 0.00033 | 1.34578 ± 0.00033 | 1.3455 ± 0.00033
x2 = 0.8727 | 1.34182 ± 0.00032 | 1.34177 ± 0.00032 | 1.34062 ± 0.00032 | 1.34036 ± 0.00032
x2 = 0.9233 | 1.33495 ± 0.00033 | 1.3349 ± 0.00033 | 1.33379 ± 0.00033 | –
x2 = 0.9253 | 1.33679 ± 0.00033 | 1.33674 ± 0.00033 | 1.33564 ± 0.00033 | –
x2 = 0.9527 | 1.33364 ± 0.00032 | 1.33359 ± 0.00032 | 1.33248 ± 0.00032 | –
x2 = 0.9773 | 1.33017 ± 0.00032 | 1.33012 ± 0.00032 | 1.32903 ± 0.00032 | –
x2 = 0.989 | 1.329 ± 0.00032 | 1.32895 ± 0.00032 | 1.32786 ± 0.00032 | –
x2 = 0.9964 | 1.32759 ± 0.00032 | 1.32754 ± 0.00032 | 1.32645 ± 0.00032 | –
